How the values were obtained:
GAL4EcR + VP16USP [1] = experiment: Transactivation of reporter genes through switch 1.2 in CHO cells; assay type: cell-based, Choristoneura fumiferana; conditions: switch 1.2 GAL4EcR + VP16USP, pGAL4RELuc
Method: (§1) This construct was prepared in the same way as in switch 1.1 above except MmRXRDEF was replaced with the D, E and F domains from spruce budworm USP (“CfUSPDEF”; SEQ ID NO: 58). The constructs used in this example are similar to those disclosed in U.S. Pat. No. 5,880,333 except that Choristoneura fumiferana USP rather than Drosophila melanogaster USP was utilized.
(§2) The cells were harvested and reporter activity was assayed.
(§3) Cells were harvested 24-48 hr after adding ligands. […] Twenty μl of lysate was assayed.

VP16CfEcR [2] = experiment: Transactivation of reporter genes through switch 1.7 in CHO cells; assay type: cell-based, Choristoneura fumiferana; conditions: switch 1.7 VP16CfEcR, pEcRELuc
Method: (§4) Six ecdysone response elements (“EcRE”; SEQ ID NO: 59) from the hsp27 gene were placed upstream of the promoter and a luciferase gene (SEQ ID NO: 57). This switch most probably uses endogenous RXR.
as §2, §3

GAL4EcR + VP16RXR = experiment: Transactivation of reporter genes through switch 1.1 in 3T3 cells
Source text: (§5) In various cellular backgrounds, including mammalian cells, insect ecdysone receptor (EcR) heterodimerizes with retinoid X receptor (RXR) and, upon binding of ligand, transactivates genes under the control of ecdysone response elements. Applicants constructed several EcR-based gene expression cassettes based on the spruce budworm Choristoneura fumiferana EcR (“CfEcR”; full length polynucleotide and amino acid sequences are set forth in SEQ ID NO: 49 and SEQ ID NO: 50, respectively), C. fumiferana ultraspiracle (“CfUSP”; full length polynucleotide and amino acid sequences are set forth in SEQ ID NO: 51 and SEQ ID NO: 52, respectively), and mouse Mus musculus RXRα (MmRXRα; full length polynucleotide and amino acid sequences are set forth in SEQ ID NO: 53 and SEQ ID NO: 54, respectively). The prepared receptor constructs comprise a ligand binding domain of EcR and of RXR or of USP; a DNA binding domain of GAL4 or of EcR; and an activation domain of VP16. The reporter constructs include a reporter gene, luciferase or LacZ, operably linked to a synthetic promoter construct that comprises either GAL4 or EcR/USP binding sites (response elements). Various combinations of these receptor and reporter constructs were cotransfected into CHO, NIH3T3, CV1 and 293 cells. […] Reporter gene expression activities were assayed at 24 hr or 48 hr after ligand addition.
(§6) The same procedures described for CHO cells were followed for 3T3 cells as well with two modifications. The cells were plated when they reached 50% confluency. 125,000 or 50,000 or 25,000 cells were plated per well of 6- or 12- or 24-well plates respectively. The GAl4EcR/VP16RXR and reporter vector DNAs were transfected into NIH3T3 cells, the transfected cells were grown in medium containing PonA, MurA, N-(2-ethyl-3-methoxybenzoyl)-N′-(3,5-dimethylbenzoyl)-N′-t-butylhydrazine, or N-(3,4-(1,2-ethylenedioxy)-2-methylbenzoyl)-N′-(3,5-dimethylbenzoyl)-N′-tert-butylhydrazine for 48 hr. The ligand treatments were performed as described in the CHO cell section above.
(§7) Cells were harvested 24-48 hr after adding ligands. 125, 250, or 500 μl of passive lysis buffer (part of Dual-luciferase™ reporter assay system from Promega Corporation) were added to each well of 24- or 12- or […] respectively. The plates were placed on a rotary shaker for 15 min. Twenty μl of lysate was assayed. Luciferase activity was measured using Dual-luciferase™ reporter assay system from Promega Corporation following the manufacturer's instructions. β-Galactosidase was measured using Galacto-Star™ assay kit from TROPIX following the manufacturer's instructions. All luciferase and β-galactosidase activities were normalized using Renilla luciferase as a standard. Fold activities were calculated by dividing normalized relative light units (“RLU”) in ligand treated cells with normalized RLU in DMSO treated cells (untreated control).

GAL4EcR + VP16USP [3] = experiment: Transactivation of reporter genes through switch 1.2 in 3T3 cells; assay type: cell-based, Choristoneura fumiferana; conditions: switch 1.2 GAL4EcR + VP16USP, pGAL4RELuc
Method: as §1
(§8) The cells were plated when they reached 50% confluency.
as §3

GAL4RXR + VP16CfEcR = experiment: Transactivation of reporter genes through switch 1.3 in 3T3 cells
Source text: as §5
MmRXRDEF (SEQ ID NO: 22) was fused to a GAL4DNABD (SEQ ID NO: 41) and CfEcRCDEF (SEQ ID NO: 1) was fused to a VP16AD (SEQ ED NO: 45).
as §6, §7

VP16CfEcR [4] = experiment: Transactivation of reporter genes through switch 1.7 in 3T3 cells; assay type: cell-based, Choristoneura fumiferana; conditions: switch 1.7 VP16CfEcR, pEcRELuc
Method: as §4, §8, §3

DmVgRXR + MmRXR = target: T1, DmVgRXR + MmRXR (Drosophila melanogaster, UniProt P34021, E282G/G283S/G286V); experiment: Transactivation of reporter genes through switch 1.8 in 3T3 cells; assay type: cell-based; conditions: switch 1.8 DmVgRXR + MmRXR, pIND(SP1)LacZ
T1 construct: host or cells: CHO, NIH3T3, 293 or CV1 cells (one cell line per assay)
Source text: This system was purchased from Invitrogen Corp., Carlsbad, Calif. It comprises a Drosophila melanogaster EcR (“DmEcR”) with a modified DNABD fused to VP16AD and placed under the control of a CMV promoter (SEQ ID NO: 60). Full length MmRXR (SEQ ID NO: 53) was placed under the control of the RSV promoter (SEQ ID NO: 61). The reporter, pIND(SP1)LacZ, contains five copies of a modified ecdysone response element (“EcRE”, E/GRE), three copies of an SP1 enhancer, and a minimal heat shock promoter, all of which were placed upstream to the LacZ reporter gene.
as §8, §3

GAL4CfEcRVP16 = experiment: Transactivation of reporter genes through switch 1.6 in CV1 cells; assay type: cell-based, Choristoneura fumiferana; conditions: switch 1.6 GAL4CfEcRVP16, pGAL4RELuc
Method: This construct was prepared so that both the GAL4 DNABD and the VP16AD were placed on the same molecule. GAL4DNABD (SEQ ID NO: 41) and VP16AD (SEQ ID NO: 45) were fused to CfEcRDEF (SEQ ID NO: 3) at N- and C-termini respectively.
(§9) The same procedures described for NIH3T3 cells were followed for CV1 cells
as §3

CfVgRXR + MmRXR = experiment: Transactivation of reporter genes through switch 1.9 in CV1 cells; assay type: cell-based, Choristoneura fumiferana; conditions: switch 1.9 CfVgRXR + MmRXR, pIND(SP1)LacZ
Method: This example was prepared in the same way as switch 1.8 except DinEcR was replaced with a truncated CfEcR comprising a partial A/B domain and the complete CDEF domains [SEQ ID NO: 62 (polynucleotide) and SEQ ID NO: 63 (polypeptide)].
as §9, §3

T1 sequence (P34021 whole entry E282G/G283S/G286V): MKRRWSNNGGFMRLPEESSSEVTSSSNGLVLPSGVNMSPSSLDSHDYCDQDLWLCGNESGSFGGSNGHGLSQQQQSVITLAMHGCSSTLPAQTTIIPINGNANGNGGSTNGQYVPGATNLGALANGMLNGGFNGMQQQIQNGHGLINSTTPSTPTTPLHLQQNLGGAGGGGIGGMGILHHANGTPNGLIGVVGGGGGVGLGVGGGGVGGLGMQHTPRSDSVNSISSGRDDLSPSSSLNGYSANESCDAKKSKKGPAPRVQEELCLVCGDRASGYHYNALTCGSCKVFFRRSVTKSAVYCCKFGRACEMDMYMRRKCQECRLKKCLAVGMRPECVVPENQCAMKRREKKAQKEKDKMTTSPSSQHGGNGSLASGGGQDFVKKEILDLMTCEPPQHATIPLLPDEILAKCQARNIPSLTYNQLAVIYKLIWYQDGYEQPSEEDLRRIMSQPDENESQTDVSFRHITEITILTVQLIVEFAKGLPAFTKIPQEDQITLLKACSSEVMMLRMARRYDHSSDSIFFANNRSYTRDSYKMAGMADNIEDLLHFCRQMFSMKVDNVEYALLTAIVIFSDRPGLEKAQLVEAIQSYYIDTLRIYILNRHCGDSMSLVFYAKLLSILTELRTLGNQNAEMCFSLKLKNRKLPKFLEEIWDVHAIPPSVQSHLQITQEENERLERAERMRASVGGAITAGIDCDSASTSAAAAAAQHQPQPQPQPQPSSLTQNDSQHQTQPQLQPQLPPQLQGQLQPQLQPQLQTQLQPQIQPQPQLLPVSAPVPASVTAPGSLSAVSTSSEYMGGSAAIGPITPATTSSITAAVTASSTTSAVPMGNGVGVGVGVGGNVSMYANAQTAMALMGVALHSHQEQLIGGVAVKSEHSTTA
T1 sequence (P28700 whole entry, further chain): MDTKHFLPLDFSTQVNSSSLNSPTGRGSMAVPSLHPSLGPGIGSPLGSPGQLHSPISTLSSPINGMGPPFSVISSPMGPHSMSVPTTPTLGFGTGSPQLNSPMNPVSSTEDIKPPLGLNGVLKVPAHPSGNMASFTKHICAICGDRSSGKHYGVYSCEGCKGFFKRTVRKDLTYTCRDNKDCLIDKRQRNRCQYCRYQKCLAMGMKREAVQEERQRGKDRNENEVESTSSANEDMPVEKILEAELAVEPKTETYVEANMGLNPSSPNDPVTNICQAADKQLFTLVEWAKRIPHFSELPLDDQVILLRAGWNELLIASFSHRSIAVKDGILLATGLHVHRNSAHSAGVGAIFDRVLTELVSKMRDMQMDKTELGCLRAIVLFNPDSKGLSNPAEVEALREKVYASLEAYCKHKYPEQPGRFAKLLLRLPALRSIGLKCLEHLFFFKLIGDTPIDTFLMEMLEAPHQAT

Structure (SMILES): CCc1c(OC)cccc1C(=O)NN(C(=O)c1cc(C)cc(C)c1)C(C)(C)C [N-(2-ethyl-3-methoxybenzoyl)-N′-(3,5-dimethylbenzoyl)-N′-tert-butylhydrazine]
- Mean Fold Activation with 50 μM N-(2-ethyl-3-methoxybenzoyl)-N′-(3,5-dimethylbenzoyl)-N′-t-butylhydrazine (GAL4EcR + VP16USP [1]): 2 fold
- Mean Fold Activation with 50 μM N-(2-ethyl-3-methoxybenzoyl)-N′-(3,5-dimethylbenzoyl)-N′-t-butylhydrazine (VP16CfEcR [2]): 36 fold
- Mean Fold Induction at 1.0 μM Concentration (GAL4EcR + VP16RXR; GAL4CfEcRDEF/VP16MmRXRDEF (switch 1.1), 1.0 μM ligand, 48 hr): 116 fold
- Mean Fold Activation Through N-(2-ethyl-3-methoxybenzoyl)-N′-(3,5-dimethylbenzoyl)-N′-t-butylhydrazine (GAL4EcR + VP16RXR; switch 1.1 GAL4EcR + VP16RXR, pGAL4RELuc): 1118 fold
- Mean Fold Activation Through N-(2-ethyl-3-methoxybenzoyl)-N′-(3,5-dimethylbenzoyl)-N′-t-butylhydrazine (GAL4EcR + VP16USP [3]): 2 fold
- Mean Fold Induction at 1.0 μM Concentration (GAL4RXR + VP16CfEcR; GAL4MmRXRDEF/VP16CfEcRCDEF (switch 1.3), 1.0 μM ligand): 71 fold
- Mean Fold Activation Through N-(2-ethyl-3-methoxybenzoyl)-N′-(3,5-dimethylbenzoyl)-N′-t-butylhydrazine (GAL4RXR + VP16CfEcR; switch 1.3 GAL4RXR + VP16CfEcR, pGAL4RELuc): 47 fold
- Mean Fold Activation Through N-(2-ethyl-3-methoxybenzoyl)-N′-(3,5-dimethylbenzoyl)-N′-t-butylhydrazine (VP16CfEcR [4]): 1 fold
- Mean Fold Activation Through N-(2-ethyl-3-methoxybenzoyl)-N′-(3,5-dimethylbenzoyl)-N′-t-butylhydrazine (DmVgRXR + MmRXR): 21 fold
- Mean Fold Activation Through N-(2-ethyl-3-methoxybenzoyl)-N′-(3,5-dimethylbenzoyl)-N′-t-butylhydrazine (GAL4CfEcRVP16): 6 fold
- Mean Fold Activation Through N-(2-ethyl-3-methoxybenzoyl)-N′-(3,5-dimethylbenzoyl)-N′-t-butylhydrazine (CfVgRXR + MmRXR): 7 fold
